Test results: patent US4112219A, “Acyl derivatives of antibiotic BM123γ” (American Cyanamid Company, priority 1977, dated 1978)
Where “and” joins values, the source holds several entries; their conditions need not be identical. Equal entries are not always repeated.

What follows are substances tested on Escherichia coli US311 (assay: in vivo activity against Escherichia coli US311 in mice (systemic lethal infection, single subcutaneous dose)). Details: infected intraperitoneally with lethal dose of E. coli US311.
Set-up: species or system Escherichia coli US311 in Carworth Farms CF-1 mice
Excerpt: The starting material for the acylation procedure has been defined hereinabove as antibiotic BM123γ having formula (IV). When R' is structure (II) in formula (IV), then the antibiotic is BM123γ1 and when R' is structure (III) in formula (IV), then the antibiotic is BM123γ2. […] The preparation and properties of trans-BM123γ1 and trans-BM123γ2 are disclosed in U.S. Pat. No. 4,007,167 whereas the preparation and properties of cis-BM123γ1 and cis-BM123γ2 are set forth in U.S. Pat. No. 4,018,972. The term cis-BM123γ refers to a mixture in any proportion of cis-BM123γ1 and cis-BM123γ2 whereas the term trans-BM123γ refers to a mixture in any proportion of trans-BM123γ1 and trans-BM123γ2. The expression antibiotic BM123γ refers to either cis-BM123γ or trans-BM123γ. […] These new substances show high in vivo antibacterial activity in mice against Escherichia coli US311 when administered by a single subcutaneous dose to groups of Carworth Farms CF-1 mice, weight about 20 grams, infected intraperitoneally with a lethal dose of this bacteria in a 10^-3 trypticase soy broth TSP dilution of a 5 hour TSP blood culture. In Table I below is set forth the in vivo activity of typical products of this invention (prepared by the procedure of Example 1 from the indicated activated ester which was prepared by the procedure of Example 2 or Example 3) against Escherichia coli US311 in mice. The activity is expressed in terms of the ED50 or the dose in mg./kg. of body weight required to protect 50% of the mice against E. coli. The derivative name in Table I indicates whether cis-BM123 or trans-BM123 was employed as starting material.

Substance | ED50 (dose required to protect 50% of the mice against E. coli)
Cyclopropylcarbonyl-trans-BM123γ | 2.0 mg./kg. of Body Weight
3,4-Dichlorobenzoyl-trans-BM123γ | 0.5 mg./kg. of Body Weight and 1.0 mg./kg. of Body Weight
p-Formylbenzoyl-trans-BM123γ | 2.0 mg./kg. of Body Weight
p-Methylthiobenzoyl-trans-BM123γ | 4.0 mg./kg. of Body Weight
Decanoyl-trans-BM123γ | 2.0 mg./kg. of Body Weight
3,5-Dinitrobenzoyl-trans-BM123γ | 1.0 mg./kg. of Body Weight
2,4-Dichlorobenzoyl-trans-BM123γ | 0.5 mg./kg. of Body Weight and 1.0 mg./kg. of Body Weight
4-Oxy-4H-thiapyran-3-yl-carbonyl-trans-BM123γ | 2.0 mg./kg. of Body Weight
4-Ethyl-2,3-diketopiperazine-1-carbonyl-trans-BM123γ | 2.0 mg./kg. of Body Weight
o-Hydroxybenzoyl-trans-BM123γ | 8.0 mg./kg. of Body Weight
1,4-Thiapyran(2)carbonyl-trans-BM123γ | 2.0 mg./kg. of Body Weight
2-Napthyloxyacetyl-trans-BM123γ | 0.5 mg./kg. of Body Weight
o-Methylbenzoyl-trans-BM123γ | 2.0 mg./kg. of Body Weight and 1.0 mg./kg. of Body Weight
3,4-Dimethylbenzoyl-trans-BM123γ | 2.0 mg./kg. of Body Weight
Phenoxyacetyl-trans-BM123γ | 1.0 mg./kg. of Body Weight
3,5-Dichlorobenzoyl-trans-BM123γ | 0.5 mg./kg. of Body Weight
p-t-Butylbenzoyl-trans-BM123γ | 4.0 mg./kg. of Body Weight
Benzoyl-trans-BM123γ | 4.0 mg./kg. of Body Weight
o-Benzoylbenzoyl-trans-BM123γ | 2.0 mg./kg. of Body Weight
m-Mercaptobenzoyl-trans-BM123γ | 2.0 mg./kg. of Body Weight
p-Fluorobenzoyl-trans-BM123γ | 1.0 mg./kg. of Body Weight
p-Acetylbenzoyl-trans-BM123γ | 2.0 mg./kg. of Body Weight
Cinnamoyl-trans-BM123γ | 2.0 mg./kg. of Body Weight

Substance | ED50 (dose required to protect 50% of the mice against E. coli)
Trichloroacetyl-trans-BM123γ | 1.0 mg./kg. of Body Weight
2-Thienyl-trans-BM123γ | 1.0 mg./kg. of Body Weight
p-Acetaminobenzoyl-trans-BM123γ | 2.0 mg./kg. of Body Weight
1-Naphthoyl-trans-BM123γ | 0.5 mg./kg. of Body Weight
Pyridine-n-oxide-2-carbonyl-trans-BM123γ | 2.0 mg./kg. of Body Weight
α-Bromopropionyl-trans-BM123γ | 2.0 mg./kg. of Body Weight
3,4,5-Trimethoxybenzoyl-trans-BM123γ | 2.0 mg./kg. of Body Weight
p-Chlorobenzoyl-trans-BM123γ | 4.0 mg./kg. of Body Weight
o-Fluorobenzoyl-trans-BM123γ | 1.0 mg./kg. of Body Weight
m-Bromobenzoyl-trans-BM123γ | 0.75 mg./kg. of Body Weight
Chlorodiphenylacetyl-trans-BM123γ | 2.0 mg./kg. of Body Weight
p-Trifluoromethoxybenzoyl:trans-BM123γ | 1.0 mg./kg. of Body Weight
p-Methoxybenzoyl-trans-BM123γ | 1.0 mg./kg. of Body Weight
4-(p-Chlorophenylsulfonyl)-benzoyl-trans-BM123γ | 2.0 mg./kg. of Body Weight
α-Phenoxypropionyl-trans-BM123γ | 2.0 mg./kg. of Body Weight and 1.0 mg./kg. of Body Weight
o-Benzylbenzoyl-trans-BM123γ | 2.0 mg./kg. of Body Weight
Methoxyacetyl-trans-BM123γ | 2.0 mg./kg. of Body Weight
Pentafluorobenzoyl-trans-BM123γ | 0.5 mg./kg. of Body Weight
p-Ethoxybenzoyl-trans-BM123γ | 2.0 mg./kg. of Body Weight
4-Fluoro-1-naphthoyl-trans-BM123γ | 1.0 mg./kg. of Body Weight
p-Sulfamylbenzoyl-trans-BM123γ | 0.5 mg./kg. of Body Weight
Carbethoxyformyl-trans-BM123γ | 1.0 mg./kg. of Body Weight
p-Nitrobenzoyl-trans-BM123γ | 0.5 mg./kg. of Body Weight

Substance | ED50 (dose required to protect 50% of the mice against E. coli)
m-Fluorobenzoyl-trans-BM123γ | 1.0 mg./kg. of Body Weight
Trimethylacetyl-trans-BM123γ | 1.0 mg./kg. of Body Weight
p-Hydroxybenzoyl-trans-BM123γ | 2.0 mg./kg. of Body Weight
4-Carbethoxy-3,5-dimethoxybenzoyl-trans-BM123γ | 2.0 mg./kg. of Body Weight
2,3,6-Trichlorobenzoyl-trans-BM123γ | 2.0 mg./kg. of Body Weight
m-Phenoxybenzoyl-trans-BM123γ | 1.5 mg./kg. of Body Weight
o-Acetoxybenzoyl-trans-BM123γ | 2.0 mg./kg. of Body Weight
m-Methylbenzoyl-trans-BM123γ | 1.0 mg./kg. of Body Weight
p-Cyanobenzoyl-trans-BM123γ | 4.0 mg./kg. of Body Weight
2,5-Dibromobenzoyl-trans-BM123γ | 2.0 mg./kg. of Body Weight
2,6-Dimethoxybenzoyl-trans-BM123γ | 2.0 mg./kg. of Body Weight
Pentachlorobenzoyl-trans-BM123γ | 2.0 mg./kg. of Body Weight
m-Hydroxybenzoyl-trans-BM123γ | 1.5 mg./kg. of Body Weight
o-Mercaptobenzoyl-trans-MB123γ | 2.0 mg./kg. of Body Weight
p-Trifluoromethylbenzoyl-trans-BM123γ | 4.0 mg./kg. of Body Weight
2-Methylpropionyl-trans-BM123γ | 2.0 mg./kg. of Body Weight
3-Methoxy-2-naphthoyl-trans-BM123γ | 2.0 mg./kg. of Body Weight
Propionyl-trans-BM123γ | 4.0 mg./kg. of Body Weight
2-Furyl-trans-BM123γ | 1.0 mg./kg. of Body Weight
p-Biphenylcarbonyl-trans-BM123γ | 2.0 mg./kg. of Body Weight
8-Bromo-1-napthoyl-trans-BM123γ | 1.5 mg./kg. of Body Weight
p-Dimethylaminobenzoyl-trans-BM123γ | 2.0 mg./kg. of Body Weight

Same assay, conditions: infected intraperitoneally with lethal dose of E. coli US311, listed as α-Phenyoxypropionyl-trans-BM123γ

Substance | ED50 (dose required to protect 50% of the mice against E. coli)
α-Phenoxypropionyl-trans-BM123γ | 2.0 mg./kg. of Body Weight
